ChEMBL document CHEMBL5505969, “Discovery of new piperaquine hybrid analogs linked by triazolopyrimidine and pyrazolopyrimidine scaffolds with antiplasmodial and transmission blocking activities” (Eur J Med Chem, 2024)
Calls of active or inactive are those of the source. The calls are words filed in the database; no cut-off is given here.

Tests used:
[1] = target: T1, Dihydroorotate dehydrogenase (quinone), mitochondrial (Plasmodium falciparum (isolate 3D7)) (UniProt Q08210); test: Inhibition of Plasmodium falciparum DHODH assessed as residual activity at 100 uM measured over 60 secs by DCIP dye based colorimetric assay relative to control; settings: time > 60.0 sec
T1 sequence (whole entry): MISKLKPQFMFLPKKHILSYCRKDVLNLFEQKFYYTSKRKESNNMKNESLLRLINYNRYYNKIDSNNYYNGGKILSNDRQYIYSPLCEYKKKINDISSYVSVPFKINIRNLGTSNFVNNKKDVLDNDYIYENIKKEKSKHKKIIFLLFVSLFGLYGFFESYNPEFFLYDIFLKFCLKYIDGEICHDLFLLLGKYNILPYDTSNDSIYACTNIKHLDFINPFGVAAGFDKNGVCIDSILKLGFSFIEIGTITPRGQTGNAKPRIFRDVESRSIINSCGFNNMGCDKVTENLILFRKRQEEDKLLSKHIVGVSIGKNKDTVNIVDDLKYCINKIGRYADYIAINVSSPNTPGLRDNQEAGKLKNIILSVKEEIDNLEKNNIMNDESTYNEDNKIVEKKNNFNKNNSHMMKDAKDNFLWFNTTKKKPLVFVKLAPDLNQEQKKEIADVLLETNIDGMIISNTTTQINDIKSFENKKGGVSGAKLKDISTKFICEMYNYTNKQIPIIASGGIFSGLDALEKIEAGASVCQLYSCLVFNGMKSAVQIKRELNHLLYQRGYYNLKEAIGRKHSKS

Plasmodium falciparum [2] = test: Antiplasmodial activity against sorbitol-synchronized ring stage chloroquine sensitive Plasmodium falciparum 3D7 infected in erythrocytes measured after 48 hrs by SYBR green dye based fluorescence analysis; assay type: functional, organism-based; settings: 3D7, Erythrocyte
[3] = target: T1, Dihydroorotate dehydrogenase (quinone), mitochondrial (Plasmodium falciparum (isolate 3D7)); test: Inhibition of Plasmodium falciparum DHODH at 100 uM measured over 60 secs by DCIP dye based colorimetric assay relative to control; settings: time > 60.0 sec
Plasmodium falciparum [4] = test: Resistance index, ratio of IC50 for antiplasmodial activity against sorbitol-synchronized ring stage chloroquine resistant Plasmodium falciparum K1 infected in erythrocytes to IC50 for antiplasmodial activity against sorbitol-synchronized ring stage chloroquine sensitive Plasmodium falciparum 3D7 infected in erythrocytes; assay type: functional
Plasmodium falciparum [5] = test: (§1) Antiplasmodial activity against sorbitol-synchronized ring stage chloroquine resistant Plasmodium falciparum K1 infected in erythrocytes measured after 48 hrs by SYBR green dye based fluorescence analysis; assay type: functional, organism-based; settings: K1, Erythrocyte
[6] = Cytotoxicity against human HepG2 cells assessed as reduction in cell viability incubated for 72 hrs by MTT assay; assay type: toxicity, cell-based
[7] = Selectivity index, ratio of CC50 for human HepG2 cells to IC50 for antiplasmodial activity against sorbitol-synchronized ring stage chloroquine sensitive Plasmodium falciparum 3D7 infected in erythrocytes; assay type: toxicity, cell-based; settings: Plasmodium falciparum 3D7 in erythrocytes, read-out: Ratio CC50/IC50
[8] = target: T2, Dihydroorotate dehydrogenase (quinone), mitochondrial (Plasmodium falciparum (isolate 3D7), UniProt Q08210); test: Inhibition of Plasmodium falciparum DHODH measured over 60 secs by DCIP dye based colorimetric assay
T2 sequence (Q08210 whole entry): T1 sequence (whole entry)

Plasmodium falciparum [9] = test: (§2) Resistance index, ratio of IC50 for antiplasmodial activity against sorbitol-synchronized ring stage chloroquine, mefloquine and pyrimethamine resistant Plasmodium falciparum Dd2 harboring N86F/M74I/ N75E/K75T mutation in MDR1 gene, N51I/C59R/S108N mutation in DHFR gene and S436F/A437G/A613S mutation in DHPS gene infected in erythrocytes to IC50 for antiplasmodial activity against sorbitol-synchronized ring stage chloroquine sensitive Plasmodium falciparum 3D7 infected in erythrocytes; assay type: functional
Plasmodium falciparum [10] = test: Antiplasmodial activity against GFP expressing sorbitol-synchronized ring stage laboratory adapted Plasmodium falciparum 3D7HT assessed as reduction in infectivity by measuring inhibition of gametocyte formation at 10 uM treated for 72 hrs followed by replacement with fresh media without compound for 24 hrs and measured on day 4 by giemsa staining based microscopic analysis; assay type: functional
Plasmodium berghei = test: Antiplasmodial activity against GFP-expressing Plasmodium berghei HSP70 infected in CD-1 mouse assessed as inhibition of ookinete formation at 10 uM measured after 22 hrs by giemsa staining based microscopic analysis; assay type: functional; settings: read-out: INH
Plasmodium falciparum [11] = test: (§3) Antiplasmodial activity against sorbitol-synchronized ring stage chloroquine, mefloquine and pyrimethamine resistant Plasmodium falciparum Dd2 harboring N86F/M74I/ N75E/K75T mutation in MDR1 gene, N51I/C59R/S108N mutation in DHFR gene and S436F/A437G/A613S mutation in DHPS gene infected in erythrocytes measured after 48 hrs by SYBR green dye based fluorescence analysis; assay type: functional, organism-based; settings: Dd2, Erythrocyte
Plasmodium falciparum [12] = test: as §2, with “atovaquone” for “chloroquine, mefloquine and pyrimethamine”, “TM90C6B” for “Dd2”, “Y268S mutation in CYTB gene, Y184F” for “N86F/M74I/ N75E/K75T”, “S436F/A437G/A581G” for “S436F/A437G/A613S”; assay type: functional
Plasmodium falciparum [13] = test: as §1, with “2-(1,1-difluoroethyl)-5-methyl-N-(4-(pentafluoro-l6-sulfaneyl)phenyl)-[1,2,4]triazolo[1,5-a]pyrimidin-7-amine” for “chloroquine”, “Dd2” for “K1”; assay type: functional, organism-based; settings: Dd2, Erythrocyte
Plasmodium falciparum [14] = test: as §3, with “atovaquone” for “chloroquine, mefloquine and pyrimethamine”, “TM90C6B” for “Dd2”, “Y268S mutation in CYTB gene, Y184F” for “N86F/M74I/ N75E/K75T”, “S436F/A437G/A581G” for “S436F/A437G/A613S”; assay type: functional, organism-based; settings: Erythrocyte
Plasmodium falciparum [15] = test: Resistance index, ratio of IC50 for antiplasmodial activity against sorbitol-synchronized ring stage 2-(1,1-difluoroethyl)-5-methyl-N-(4-(pentafluoro-l6-sulfaneyl)phenyl)-[1,2,4]triazolo[1,5-a]pyrimidin-7-amine resistant Plasmodium falciparum Dd2 infected in erythrocytes to IC50 for antiplasmodial activity against sorbitol-synchronized ring stage chloroquine sensitive Plasmodium falciparum 3D7 infected in erythrocytes; assay type: functional
Plasmodium falciparum [16] = test: Antiplasmodial activity against sorbitol-synchronized ring stage MMV848 resistant Plasmodium falciparum 3D7 infected in erythrocytes measured after 48 hrs by SYBR green dye based fluorescence analysis; assay type: functional, organism-based; settings: 3D7, Erythrocyte
Plasmodium falciparum [17] = test: Resistance index, ratio of IC50 for antiplasmodial activity against sorbitol-synchronized ring stage MMV848 resistant Plasmodium falciparum 3D7 infected in erythrocytes to IC50 for antiplasmodial activity against sorbitol-synchronized ring stage chloroquine sensitive Plasmodium falciparum 3D7 infected in erythrocytes; assay type: functional
Plasmodium falciparum [18] = test: Potency index, ratio of chloroquine IC50 to test compound IC50 for antiplasmodial activity against sorbitol-synchronized ring stage chloroquine resistant Plasmodium falciparum K1 infected in erythrocytes measured after 48 hrs by SYBR green dye based fluorescence analysis; assay type: functional, Erythrocyte
Plasmodium falciparum [19] = test: Antiplasmodial activity against Plasmodium falciparum infected in erythrocytes assessed as reduction in parasite growth at 10 uM measured within 24 hrs; assay type: functional, organism-based; settings: Erythrocyte
[20] = Ratio of IC50 for Plasmodium falciparum infected in erythrocytes measured after 24 hrs by SYBR green dye based fluorescence assay to IC50 for Plasmodium falciparum infected in erythrocytes measured after 72 hrs by SYBR green dye based fluorescence assay; assay type: functional, Erythrocyte
Plasmodium falciparum [21] = test: Antiplasmodial activity against Plasmodium falciparum infected in erythrocytes assessed as induction of parasite death by measuring appearance of multiple pyknotic nuclei at 10 uM measured after 24 to 72 hrs; assay type: functional, organism-based; settings: Erythrocyte, time 24-72 hrs

Question: For `Cc1cc(NCCCNc2ccnc3cc(Cl)ccc23)n2nc(C(F)(F)F)nc2n1`, which Activity [1] is on record?
Answer: 51.5%

Question: What about the IC50 (Plasmodium falciparum [2]) of the same compound?
Answer: 673 nM

Question: And the inhibition [3]?
Answer: < 50%

Question: And the “Ratio IC50” value (Plasmodium falciparum [4])?
Answer: 4.5

Question: And the IC50 (Plasmodium falciparum [5])?
Answer: 3000 nM

Question: And the CC50 at 72 h [6]?
Answer: 113000 nM

Question: And the selectivity ratio [7]?
Answer: 168

Question: Which IC50 [8] does the source give for `Cc1cc(NCCCCCCCNc2ccnc3cc(Cl)ccc23)n2nc(C(F)(F)F)nc2n1` here?
Answer: 4800 nM

Question: And the “Ratio IC50” value (Plasmodium falciparum [9])?
Answer: 0.8

Question: What about the inhibition at 10 µM (Plasmodium falciparum [10]) of the same compound?
Answer: 69%

Question: What about the Activity [1] of the same compound?
Answer: 16.4%

Question: And the IC50 (Plasmodium falciparum [2])?
Answer: 400 nM

Question: What about the inhibition [3] of the same compound?
Answer: 84%

Question: What about the Percent inhibition of ookinete formation at 10 µM (Plasmodium berghei) of the same compound?
Answer: 20%

Question: And the IC50 (Plasmodium falciparum [11])?
Answer: 330 nM

Question: What about the CC50 at 72 h [6] of the same compound?
Answer: 13000 nM

Question: And the selectivity ratio [7]?
Answer: 33

Question: Which results are given for `Cc1cc(NCCCNc2ccnc3cc(Cl)ccc23)n2nc(C)nc2n1`?
Answer: inhibition at 10 µM (Plasmodium falciparum [10]): 50%; Activity [1]: 97%; IC50 (Plasmodium falciparum [2]): 840 nM; inhibition [3]: < 50%; Percent inhibition of ookinete formation at 10 µM (Plasmodium berghei): 23%; Ratio IC50 (Plasmodium falciparum [4]): 0.8; IC50 (Plasmodium falciparum [5]): 640 nM; CC50 at 72 h [6]: 110000 nM; selectivity ratio [7]: 131

Question: With `Cc1cc(NCCCCCCCNc2ccnc3cc(Cl)ccc23)n2ncnc2n1` as the compound, how does the “Ratio IC50” value (Plasmodium falciparum [9]) read?
Answer: 2.9

Question: And the inhibition at 10 µM (Plasmodium falciparum [10])?
Answer: 2%

Question: And the Activity [1]?
Answer: 73.5%

Question: And the IC50 (Plasmodium falciparum [2])?
Answer: 110 nM

Question: What about the inhibition [3] of the same compound?
Answer: < 50%

Question: What about the “Ratio IC50” value (Plasmodium falciparum [12]) of the same compound?
Answer: 2.2

Question: And the Percent inhibition of ookinete formation at 10 µM (Plasmodium berghei)?
Answer: 30%

Question: And the IC50 (Plasmodium falciparum [13])?
Answer: 230 nM

Question: And the IC50 (Plasmodium falciparum [14])?
Answer: 200 nM

Question: And the “Ratio IC50” value (Plasmodium falciparum [15])?
Answer: 2.1

Question: And the IC50 (Plasmodium falciparum [11])?
Answer: 320 nM

Question: And the IC50 (Plasmodium falciparum [16])?
Answer: 120 nM

Question: What about the IC50 (Plasmodium falciparum [5]) of the same compound?
Answer: 300 nM

Question: What about the CC50 at 72 h [6] of the same compound?
Answer: 16000 nM

Question: What about the selectivity ratio [7] of the same compound?
Answer: 146

Question: And the “Ratio IC50” value (Plasmodium falciparum [17])?
Answer: 1.1

Question: For `COc1cc(NC(C)CCCN)c2ncccc2c1` (stereo unspecified) [PRIMAQUINE], which inhibition at 10 µM (Plasmodium falciparum [10]) is on record?
Answer: 86%

Question: Which CC50 at 72 h [6] does the source give for `CCN(CC)CCCC(C)Nc1ccnc2cc(Cl)ccc12` (stereo unspecified) [CHLOROQUINE] here?
Answer: 398000 nM

Question: For `O=C1C(O)=C([C@H]2CC[C@H](c3ccc(Cl)cc3)CC2)C(=O)c2ccccc21` [ATOVAQUONE], which IC50 (Plasmodium falciparum [2]) is on record?
Answer: 1 nM

Question: What about the Percent inhibition of ookinete formation at 10 µM (Plasmodium berghei) of the same compound?
Answer: 78%

Question: And the IC50 (Plasmodium falciparum [14])?
Answer: > 1000 nM

Question: With `Cc1cc(NCCCCNc2ccnc3cc(Cl)ccc23)n2nc(C)nc2n1` as the compound, how does the Activity [1] read?
Answer: 92%

Question: And the inhibition [3]?
Answer: < 50%

Question: What about the Percent inhibition of ookinete formation at 10 µM (Plasmodium berghei) of the same compound?
Answer: 0%

Question: What about the CC50 at 72 h [6] of the same compound?
Answer: > 25000 nM

Question: And the selectivity ratio [7]?
Answer: > 100

Question: For `Cc1cc(NCCCCCCCNc2ccnc3cc(Cl)ccc23)n2nc(C)cc2n1`, which “Ratio IC50” value (Plasmodium falciparum [18]) is on record?
Answer: 3

Question: What about the “Ratio IC50” value (Plasmodium falciparum [9]) of the same compound?
Answer: 0.8

Question: And the inhibition at 10 µM (Plasmodium falciparum [10])?
Answer: 66.5%

Question: What about the Activity [1] of the same compound?
Answer: 89.4%

Question: What about the Activity (Plasmodium falciparum [19]) of the same compound?
Answer: Active

Question: What about the IC50 (Plasmodium falciparum [2]) of the same compound?
Answer: 46 nM

Question: What about the inhibition [3] of the same compound?
Answer: < 50%

Question: What about the “Ratio IC50” value (Plasmodium falciparum [12]) of the same compound?
Answer: 0.9

Question: What about the Percent inhibition of ookinete formation at 10 µM (Plasmodium berghei) of the same compound?
Answer: 43%

Question: What about the IC50 (Plasmodium falciparum [13]) of the same compound?
Answer: 50 nM

Question: What about the “Ratio IC50” value (Plasmodium falciparum [4]) of the same compound?
Answer: 1.5

Question: And the IC50 (Plasmodium falciparum [14])?
Answer: 40 nM

Question: What about the “Ratio IC50” value (Plasmodium falciparum [15]) of the same compound?
Answer: 1

Question: What about the IC50 (Plasmodium falciparum [11]) of the same compound?
Answer: 38 nM

Question: And the IC50 (Plasmodium falciparum [16])?
Answer: 20 nM

Question: What about the IC50 (Plasmodium falciparum [5]) of the same compound?
Answer: 71 nM

Question: And the “Ratio IC50” value [20]?
Answer: 0.8

Question: What about the CC50 at 72 h [6] of the same compound?
Answer: 9700 nM

Question: And the Activity (Plasmodium falciparum [21])?
Answer: Active

Question: What about the selectivity ratio [7] of the same compound?
Answer: 211

Question: What about the “Ratio IC50” value (Plasmodium falciparum [17]) of the same compound?
Answer: 0.4

Question: What does the source list for `Cc1cc(N2CCN(c3ccnc4cc(Cl)ccc34)CC2)n2nc(C)cc2n1`?
Answer: Activity [1]: 108%; IC50 (Plasmodium falciparum [2]): 4400 nM; inhibition [3]: < 50%
